Reference: patent publication US12568972B2, “Pyridazinol compounds and derivatives, preparation methods, herbicidal compositions and applications thereof” (Qingdao Kingagroot Chemical Compound Co., Ltd., priority 2018, dated 2026)

Experiments:
Assay in all cases: Post-emergence test, weed control effect
Format in all cases: in vivo
Settings in all cases: after 3 weeks
Rorippa indica = test system: Rorippa indica
In short: (§1)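 Greenhouse pots, soil-sown, 0.5-2 cm cover; foliar spray at 2-3 leaf stage (2-3 wk post-sowing); cpd in acetone + Tween-80, water-diluted, + 80% veg. oil methyl ester synergist 1500 g/ha; 3 wk culture; fresh-wt inhibition graded 0-10.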

Amaranthus retroflexus = test system: Amaranthus retroflexus
In short: as §1

Veronica polita = test system: Veronica polita
In short: as §1

Chenopodiaceae = test system: Chenopodiaceae
In short: as §1

O=C(CCCBr)Oc1cc(C(F)(F)F)nnc1-c1ccc(F)c(F)c1 [Compound 1-23]
10: weed control effect, Rorippa indica (activity level) (Rorippa indica; Dose 3000 g/ha) | weed control effect, Amaranthus retroflexus (activity level) (Amaranthus retroflexus; Dose 3000 g/ha) | weed control effect, Veronica polita (activity level) (Veronica polita; Dose 3000 g/ha) | weed control effect, Chenopodiaceae (activity level) (Chenopodiaceae; Dose 3000 g/ha)

O=Cc1ccc(-c2nnc(C(F)(F)F)cc2O)cc1F [Compound 65]
10: weed control effect (activity level), Rorippa indica (Rorippa indica; dose 1000 g/ha) | weed control effect (activity level), Amaranthus retroflexus (Amaranthus retroflexus; dose 1000 g/ha) | weed control effect (activity level), Veronica polita (Veronica polita; dose 1000 g/ha) | weed control effect (activity level), Chenopodiaceae (Chenopodiaceae; dose 1000 g/ha)

Oc1cc(C(F)(F)F)nnc1-c1cnc(F)cc1F [Compound 989]
10: weed control effect (activity level), Rorippa indica (Rorippa indica; Dose 3000 g/ha) | weed control effect (activity level), Amaranthus retroflexus (Amaranthus retroflexus; Dose 3000 g/ha) | weed control effect (activity level), Veronica polita (Veronica polita; Dose 3000 g/ha) | weed control effect (activity level), Chenopodiaceae (Chenopodiaceae; Dose 3000 g/ha)

Oc1cc(C(F)(F)F)nnc1-c1cccc(Cl)c1F [Compound 45]
10: weed control effect (activity level), Rorippa indica (Rorippa indica; dose 1000 g/ha) | weed control effect (activity level), Amaranthus retroflexus (Amaranthus retroflexus; dose 1000 g/ha) | weed control effect (activity level), Veronica polita (Veronica polita; dose 1000 g/ha) | weed control effect (activity level), Chenopodiaceae (Chenopodiaceae; dose 1000 g/ha)

CCc1cccc(-c2nnc(C(F)(F)F)cc2OS(=O)(=O)c2nc3ccccc3[nH]2)c1 [Compound 1-153]
10: weed control effect, Rorippa indica (activity level) (Rorippa indica; Dose 3000 g/ha) | weed control effect, Amaranthus retroflexus (activity level) (Amaranthus retroflexus; Dose 3000 g/ha) | weed control effect, Veronica polita (activity level) (Veronica polita; Dose 3000 g/ha) | weed control effect, Chenopodiaceae (activity level) (Chenopodiaceae; Dose 3000 g/ha)

Oc1cc(C(F)(F)F)nnc1-c1cc(F)cc(/C=C/Cl)c1 [Compound 169]
10: weed control effect (activity level), Rorippa indica (Rorippa indica; dose 2000 g/ha) | weed control effect (activity level), Amaranthus retroflexus (Amaranthus retroflexus; dose 2000 g/ha) | weed control effect (activity level), Veronica polita (Veronica polita; dose 2000 g/ha) | weed control effect (activity level), Chenopodiaceae (Chenopodiaceae; dose 2000 g/ha)

O=C(Cc1ccccc1)Oc1cc(C(F)(F)F)nnc1-c1ccc(F)c(F)c1 [Compound 1-94]
10: weed control effect, Rorippa indica (activity level) (Rorippa indica; Dose 3000 g/ha) | weed control effect, Amaranthus retroflexus (activity level) (Amaranthus retroflexus; Dose 3000 g/ha) | weed control effect, Veronica polita (activity level) (Veronica polita; Dose 3000 g/ha) | weed control effect, Chenopodiaceae (activity level) (Chenopodiaceae; Dose 3000 g/ha)

CC(=O)Oc1ccccc1C(=O)Oc1cc(C(F)(F)F)nnc1-c1ccccc1 [Compound 1-87]
10: weed control effect, Rorippa indica (activity level) (Rorippa indica; Dose 3000 g/ha) | weed control effect, Amaranthus retroflexus (activity level) (Amaranthus retroflexus; Dose 3000 g/ha) | weed control effect, Veronica polita (activity level) (Veronica polita; Dose 3000 g/ha) | weed control effect, Chenopodiaceae (activity level) (Chenopodiaceae; Dose 3000 g/ha)

CN(C)C(=O)Oc1cc(C(F)(F)F)nnc1-c1ccc(F)c(F)c1 [Compound 1-60]
10: weed control effect, Rorippa indica (activity level) (Rorippa indica; Dose 3000 g/ha) | weed control effect, Amaranthus retroflexus (activity level) (Amaranthus retroflexus; Dose 3000 g/ha) | weed control effect, Veronica polita (activity level) (Veronica polita; Dose 3000 g/ha) | weed control effect, Chenopodiaceae (activity level) (Chenopodiaceae; Dose 3000 g/ha)

Cn1ncc(I)c1-c1nnc(C(F)(F)F)cc1O [Compound 807]
10: weed control effect (activity level), Rorippa indica (Rorippa indica; Dose 3000 g/ha) | weed control effect (activity level), Amaranthus retroflexus (Amaranthus retroflexus; Dose 3000 g/ha) | weed control effect (activity level), Veronica polita (Veronica polita; Dose 3000 g/ha) | weed control effect (activity level), Chenopodiaceae (Chenopodiaceae; Dose 3000 g/ha)

O=S(=O)(Oc1cc(C(F)(F)F)nnc1-c1ccc(F)c(F)c1)c1ccc2ncsc2c1 [Compound 1-147]
10: weed control effect, Rorippa indica (activity level) (Rorippa indica; Dose 3000 g/ha) | weed control effect, Amaranthus retroflexus (activity level) (Amaranthus retroflexus; Dose 3000 g/ha) | weed control effect, Veronica polita (activity level) (Veronica polita; Dose 3000 g/ha) | weed control effect, Chenopodiaceae (activity level) (Chenopodiaceae; Dose 3000 g/ha)

O=C(Oc1cc(C(F)(F)F)nnc1-c1ccc(F)c(F)c1)c1ccc2[nH]ccc2c1 [Compound 1-115]
10: weed control effect, Rorippa indica (activity level) (Rorippa indica; Dose 3000 g/ha) | weed control effect, Amaranthus retroflexus (activity level) (Amaranthus retroflexus; Dose 3000 g/ha) | weed control effect, Veronica polita (activity level) (Veronica polita; Dose 3000 g/ha) | weed control effect, Chenopodiaceae (activity level) (Chenopodiaceae; Dose 3000 g/ha)

Oc1cc(C(F)(F)F)nnc1-c1cc(F)cc(Cl)c1 [Compound 46]
10: weed control effect (activity level), Rorippa indica (Rorippa indica; dose 1000 g/ha) | weed control effect (activity level), Amaranthus retroflexus (Amaranthus retroflexus; dose 1000 g/ha) | weed control effect (activity level), Veronica polita (Veronica polita; dose 1000 g/ha) | weed control effect (activity level), Chenopodiaceae (Chenopodiaceae; dose 1000 g/ha)

O=S(=O)(Oc1cc(C(F)(F)F)nnc1-c1ccc(F)c(F)c1)c1cc(F)c(Br)cc1F [Compound 1-138]
10: weed control effect, Rorippa indica (activity level) (Rorippa indica; Dose 3000 g/ha) | weed control effect, Amaranthus retroflexus (activity level) (Amaranthus retroflexus; Dose 3000 g/ha) | weed control effect, Veronica polita (activity level) (Veronica polita; Dose 3000 g/ha) | weed control effect, Chenopodiaceae (activity level) (Chenopodiaceae; Dose 3000 g/ha)

Cn1ccc2ccc(S(=O)(=O)Oc3cc(C(F)(F)F)nnc3-c3ccc(F)c(F)c3)cc21 [Compound 1-152]
10: weed control effect, Rorippa indica (activity level) (Rorippa indica; Dose 3000 g/ha) | weed control effect, Amaranthus retroflexus (activity level) (Amaranthus retroflexus; Dose 3000 g/ha) | weed control effect, Veronica polita (activity level) (Veronica polita; Dose 3000 g/ha) | weed control effect, Chenopodiaceae (activity level) (Chenopodiaceae; Dose 3000 g/ha)

O=Cc1ccc(-c2nnc(C(F)(F)F)cc2O)c(F)c1 [Compound 64]
10: weed control effect (activity level), Rorippa indica (Rorippa indica; dose 1000 g/ha) | weed control effect (activity level), Amaranthus retroflexus (Amaranthus retroflexus; dose 1000 g/ha) | weed control effect (activity level), Veronica polita (Veronica polita; dose 1000 g/ha) | weed control effect (activity level), Chenopodiaceae (Chenopodiaceae; dose 1000 g/ha)

CCON(C)C(=O)Oc1cc(C(F)(F)F)nnc1-c1ccc(F)cc1 [Compound 1-63]
10: weed control effect, Rorippa indica (activity level) (Rorippa indica; Dose 3000 g/ha) | weed control effect, Amaranthus retroflexus (activity level) (Amaranthus retroflexus; Dose 3000 g/ha) | weed control effect, Veronica polita (activity level) (Veronica polita; Dose 3000 g/ha) | weed control effect, Chenopodiaceae (activity level) (Chenopodiaceae; Dose 3000 g/ha)

O=C(Oc1cc(C(F)(F)F)nnc1-c1ccc(F)c(F)c1)c1ccccc1 [Compound 1-79]
10: weed control effect, Rorippa indica (activity level) (Rorippa indica; Dose 3000 g/ha) | weed control effect, Amaranthus retroflexus (activity level) (Amaranthus retroflexus; Dose 3000 g/ha) | weed control effect, Veronica polita (activity level) (Veronica polita; Dose 3000 g/ha) | weed control effect, Chenopodiaceae (activity level) (Chenopodiaceae; Dose 3000 g/ha)

O=C(Oc1cc(C(F)(F)F)nnc1-c1ccc(F)cc1)Sc1ccccc1 [Compound 1-164]
10: weed control effect, Rorippa indica (activity level) (Rorippa indica; Dose 3000 g/ha) | weed control effect, Amaranthus retroflexus (activity level) (Amaranthus retroflexus; Dose 3000 g/ha) | weed control effect, Veronica polita (activity level) (Veronica polita; Dose 3000 g/ha) | weed control effect, Chenopodiaceae (activity level) (Chenopodiaceae; Dose 3000 g/ha)

O=C(Oc1cc(C(F)(F)F)nnc1-c1ccc(F)c(F)c1)c1cc2ccccc2o1 [Compound 1-120]
10: weed control effect, Rorippa indica (activity level) (Rorippa indica; Dose 3000 g/ha) | weed control effect, Amaranthus retroflexus (activity level) (Amaranthus retroflexus; Dose 3000 g/ha) | weed control effect, Veronica polita (activity level) (Veronica polita; Dose 3000 g/ha) | weed control effect, Chenopodiaceae (activity level) (Chenopodiaceae; Dose 3000 g/ha)

Cc1nn(C)c(-c2nnc(C(F)(F)F)cc2O)c1F [Compound 803]
10: weed control effect (activity level), Rorippa indica (Rorippa indica; Dose 3000 g/ha) | weed control effect (activity level), Amaranthus retroflexus (Amaranthus retroflexus; Dose 3000 g/ha) | weed control effect (activity level), Veronica polita (Veronica polita; Dose 3000 g/ha) | weed control effect (activity level), Chenopodiaceae (Chenopodiaceae; Dose 3000 g/ha)

O=C(Oc1cc(C(F)(F)F)nnc1-c1ccc(F)c(F)c1)c1ccco1 [Compound 1-104]
10: weed control effect, Rorippa indica (activity level) (Rorippa indica; Dose 3000 g/ha) | weed control effect, Amaranthus retroflexus (activity level) (Amaranthus retroflexus; Dose 3000 g/ha) | weed control effect, Veronica polita (activity level) (Veronica polita; Dose 3000 g/ha) | weed control effect, Chenopodiaceae (activity level) (Chenopodiaceae; Dose 3000 g/ha)

Oc1cc(C(F)(F)F)nnc1-c1cnc(F)c(F)c1 [Compound 988]
10: weed control effect (activity level), Rorippa indica (Rorippa indica; Dose 3000 g/ha) | weed control effect (activity level), Amaranthus retroflexus (Amaranthus retroflexus; Dose 3000 g/ha) | weed control effect (activity level), Veronica polita (Veronica polita; Dose 3000 g/ha) | weed control effect (activity level), Chenopodiaceae (Chenopodiaceae; Dose 3000 g/ha)

Oc1cc(C(F)(F)F)nnc1-c1cncc(F)c1Cl [Compound 1002]
10: weed control effect (activity level), Rorippa indica (Rorippa indica; Dose 3000 g/ha) | weed control effect (activity level), Amaranthus retroflexus (Amaranthus retroflexus; Dose 3000 g/ha) | weed control effect (activity level), Veronica polita (Veronica polita; Dose 3000 g/ha) | weed control effect (activity level), Chenopodiaceae (Chenopodiaceae; Dose 3000 g/ha)

Cn1nc(C#N)cc1-c1nnc(C(F)(F)F)cc1O [Compound 791]
10: weed control effect (activity level), Rorippa indica (Rorippa indica; Dose 3000 g/ha) | weed control effect (activity level), Amaranthus retroflexus (Amaranthus retroflexus; Dose 3000 g/ha) | weed control effect (activity level), Veronica polita (Veronica polita; Dose 3000 g/ha) | weed control effect (activity level), Chenopodiaceae (Chenopodiaceae; Dose 3000 g/ha)

Cn1ncc(C(F)F)c1-c1nnc(C(F)(F)F)cc1O [Compound 824]
10: weed control effect (activity level), Rorippa indica (Rorippa indica; Dose 3000 g/ha) | weed control effect (activity level), Amaranthus retroflexus (Amaranthus retroflexus; Dose 3000 g/ha) | weed control effect (activity level), Veronica polita (Veronica polita; Dose 3000 g/ha) | weed control effect (activity level), Chenopodiaceae (Chenopodiaceae; Dose 3000 g/ha)
